# Reference: patent US20160287564A1, “METHODS OF ADMINISTERING GLUTAMINASE INHIBITORS” (Calithera Biosciences, Inc., priority 2015, published 2016)
# Entries after “also recorded” stand apart in the source; their conditions may differ.
# Legend:
# [1] = Pharmacokinetics in cancer patients, dosing schedule of FIG. 6; type: in vivo, human
# Protocol: FIG. 6 is a table that describes the dosing regimen for CB-839.
# CB-839 was administered to cancer patients according to the dosing schedule in FIG. 6. The half-life of CB-839 is approximately 4 hours.
# glutaminase = experiment: Glutaminase activity in peripheral blood mononuclear cells (PBMCs) of treated patients; type: in vivo, human; conditions: PBMCs from three patients treated with 600, 800 and 1000 mg three times per day; 10-58% leukemic blast counts
# Protocol: The compound was administered three times per day (“TID”) at doses ranging from 100 mg per dose to 1000 mg per dose (i.e., 300 mg to 3000 mg total compound per day).
# acute leukemia = experiment: Clinical outcomes in efficacy-evaluable subjects with acute leukemia
# Protocol: (§1) The compound of formula III (CB-839) was administered, orally, to fifteen human subjects with acute leukemia for 22 days. The compound was administered three times per day (“TID”) at doses ranging from 100 mg per dose to 1000 mg per dose (i.e., 300 mg to 3000 mg total compound per day). Plasma levels of the compound were monitored on days 1, 15, and 22. Subjects received the compound in a fasted state on days 1 and 15 (e.g., without a meal as defined herein) and in a fed state on day 22 (e.g., with a meal as defined herein). Administration of the compound in a fasted state consisted of oral administration of a first dose 1 hour before breakfast, oral administration of a second dose at 3 PM, and oral administration of a third dose prior to bedtime.
# (§2) Each subject from Example 1 who remained enrolled in the trial were administered 600 mg of the compound of formula III orally, twice a day (“BID”), with food, each day after day 22 of the trial (i.e., 1200 mg of the compound per day).
# [2] = Plasma pharmacokinetics after oral TID/BID dosing, fasted or fed, in human subjects with acute leukemia; conditions: 600 mg twice a day with food
# Protocol: The compound was administered three times per day (“TID”) at doses ranging from 100 mg per dose to 1000 mg per dose (i.e., 300 mg to 3000 mg total compound per day). Plasma levels of the compound were monitored on days 1, 15, and 22. Subjects received the compound in a fasted state on days 1 and 15 (e.g., without a meal as defined herein) and in a fed state on day 22 (e.g., with a meal as defined herein). Administration of the compound in a fasted state consisted of oral administration of a first dose 1 hour before breakfast, oral administration of a second dose at 3 PM, and oral administration of a third dose prior to bedtime.
# Each subject from Example 1 who remained enrolled in the trial were administered 600 mg of the compound of formula III orally, twice a day (“BID”), with food, each day after day 22 of the trial (i.e., 1200 mg of the compound per day). […] Pharmacokinetics data was compared for subjects receiving 600 mg of the compound three times per day in a fasted state (i.e., 1800 mg of the compound per day, without meals as defined herein) and subjects receiving 600 mg of the compound two times per day in a fed state (i.e., 1200 mg of the compound per day, with meals as defined herein).
# [3] = Safety: dose-limiting toxicity and treatment-related adverse events in Examples 1 and 2
# Protocol: as §1, §2
# [4] = BID Fed dosing regimen, FIG. 6-8
# [5] = occurred in greater than 10% of subjects, fifteen subjects
smiles,measurement,setting,value
O=C(Cc1cccc(OC(F)(F)F)c1)Nc1ccc(CCCCc2nnc(NC(=O)Cc3ccccn3)s2)nn1 [CB-839],PK variability with BID Fed dosing regimen,[1]; [4],PK variability is reduced
same,exposure with BID Fed dosing regimen,[1]; [4],consistent exposure; also recorded: target CB-839 concentrations are maintained
same,exposure versus dose,"[1]; cancer patients, dosing schedule of FIG. 6",Exposure generally increases with dose
same,half-life,"[1]; human, in vivo, oral, cancer patients",~4 h
same,inhibition of glutaminase activity,glutaminase,> 94%
same,complete response,acute leukemia; after 6 cycles of dosing,One subject achieved a complete response in the bone marrow with incomplete recovery of peripheral counts
same,stable disease for 4-10 cycles,"acute leukemia; of 15 efficacy-evaluable subjects across all dose levels, 1 cycle=21 days",5 (33%) subjects
same,average time remaining on the study drug,acute leukemia; subjects with stable disease,134 days
same,time in which Cmax was reached,[2],2 to 6 h
same,plasma levels of the compound,[2]; all subjects,exceeded 450 nM
same,dose-limiting toxicity,"[3]; Examples 1 and 2, all dose levels",No dose-limiting toxicity was identified
same,increased bilirubin levels (treatment-related adverse event),[3]; [5],2 subjects
same,increased transaminase levels (treatment-related adverse event),[3]; [5],4 subjects
